Measured values: patent US20200190507A1, “Encoded Solid Phase Compound Library with Polynucleotide Based Barcoding” (The Scripps Research Institute, priority 2016, published 2020)
Entries after “also recorded” stand apart in the source; their conditions may differ.

System: ATB serum IgGs
Assay: Antigen competition binding analysis with beads displaying 2-B
Design: species or system human
Conditions: pooled ATB serum, beads displaying 2-B; CFP 250 μg/mL

Substance | competition with 2-B for binding ATB serum IgGs
Ag85A: Mycobacterium tuberculosis purified native protein Ag85A (Rv3804c), Strain H37Rv | competed; also recorded: compete strongly
recombinant Ag85A: Mycobacterium tuberculosis recombinant protein reference standard Ag85A, NR-49427 | unreactive; also recorded: did not compete
